Reference: PubChem BioAssay (NCI)
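Five concentrations, 48 hours, 96-well plates. The concentration for full growth arrest is given as TGI.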

Tests used:
Assay in all cases: NCI-60 cell line screen, 48 h
RPMI-8226 leukemia = system: RPMI-8226 leukemia
OVCAR-8 ovarian = system: OVCAR-8 ovarian
NCI-H226 lung = system: NCI-H226 lung
SF-295 CNS = system: SF-295 CNS
UACC-62 melanoma = system: UACC-62 melanoma
SNB-19 CNS = system: SNB-19 CNS
PC-3 prostate = system: PC-3 prostate
HOP-92 NSCLC = system: HOP-92 NSCLC
UACC-257 melanoma = system: UACC-257 melanoma
HL-60(TB) leukemia = system: HL-60(TB) leukemia

| Structure (SMILES) | TGI (RPMI-8226 leukemia) [µM] | TGI (OVCAR-8 ovarian) [µM] | TGI (NCI-H226 lung) [µM] | TGI (SF-295 CNS) [µM] | TGI (UACC-62 melanoma) [µM] | TGI (SNB-19 CNS) [µM] | TGI (PC-3 prostate) [µM] | TGI (HOP-92 NSCLC) [µM] | TGI (UACC-257 melanoma) [µM] | TGI (HL-60(TB) leukemia) [µM] |
| --- | --- | --- | --- | --- | --- | --- | --- | --- | --- | --- |
| O=C(c1ccccc1)C1C(c2ccccc2[N+](=O)[O-])N1C1CCCCC1 (stereo unspecified) | 4.68 | 3.97 | 34 | 35.3 | 20.6 | 32.3 | 15.9 | 16.2 | 8.88 | – |
| O=C(CCCCCCCCC(=O)N1C(=O)CC(=O)N(c2ccc(Cl)cc2)C1=S)N1C(=O)CC(=O)N(c2ccc(Cl)cc2)C1=S | > 100 | > 100 | > 100 | > 100 | > 100 | > 100 | > 100 | > 100 | > 100 | – |
| CN(Cc1ccccc1)C(=S)S | – | > 100 | > 100 | > 100 | > 100 | – | – | > 100 | > 100 | 59.1 |
| Cc1c(-c2ccccc2)oc(=O)c2ccccc12 | 36.5 | 93 | 40.3 | 40.2 | 33 | > 100 | 72.1 | 38 | 30.7 | – |
| COc1cc(CNc2nc3c(NC(C)=O)cc(C(F)(F)F)cc3nc2-c2ccccc2)cc(OC)c1OC | > 100 | > 100 | > 100 | > 100 | > 100 | > 100 | – | > 100 | – | – |
| C[N+](C)([O-])C12CC3CC(CC(C3)C1)C2 | 93.6 | > 100 | > 100 | > 100 | 47.4 | > 100 | > 100 | – | > 100 | > 100 |
| COc1ccc(/C=C2\N=C3N(Cc4ccccc4)C=C(N)N3C2=O)cc1 | – | > 100 | > 100 | > 100 | > 100 | 48.2 | > 100 | > 100 | > 100 | > 100 |
| CCOC(=O)CCC(NC(=O)c1ccc(NCc2ccc3nc(OC)c(OC)nc3c2)c2ccccc12)C(=O)OCC (stereo unspecified) | – | > 100 | > 100 | > 100 | > 100 | > 100 | > 100 | 97.7 | > 100 | > 100 |
| N#Cc1nc(-c2ccsc2)oc1N | > 100 | > 100 | – | – | > 100 | > 100 | > 100 | > 100 | > 100 | > 100 |
| Nc1ncnc2c1ncn2C1C(O)C=C(CO)C1O (stereo unspecified) | > 625 | > 625 | > 625 | > 625 | > 625 | > 625 | – | > 625 | – | > 625 |
| CC(C)(C)C(=O)C(N)C(=O)C(C)(C)C | > 100 | > 100 | – | > 100 | > 100 | > 100 | > 100 | > 100 | > 100 | > 100 |
| CC1=NN(C(=O)CC(=O)Nc2cccc(C)c2)C(=O)C1N=Nc1ccc(C(=O)O)cc1 (stereo unspecified) | > 100 | > 100 | – | > 100 | > 100 | > 100 | > 100 | > 100 | > 100 | > 100 |
| O=C(CN1CCCC1)Nc1ccc2c(c1)C1Oc3ccccc3CC1CO2 (stereo unspecified) | 78.9 | > 100 | > 100 | 39.7 | 33 | – | 68.3 | > 100 | 44.3 | > 100 |
| O=c1[nH]c(NCCCCCO)nc2nc[nH]c12 | > 100 | > 100 | > 100 | – | > 100 | > 100 | > 100 | > 100 | > 100 | > 100 |
| C/C(=C\C(=O)O)C(=O)N(C)c1ccccc1I | > 100 | > 100 | > 100 | > 100 | > 100 | > 100 | > 100 | > 100 | > 100 | – |
| COC(=O)c1sc2c(Cl)c(Cl)sc2c1Cl | – | > 100 | > 100 | > 100 | > 100 | > 100 | > 100 | > 100 | > 100 | > 100 |
| Cc1cc(Br)c(O)c(-c2cscn2)c1 | 20.3 | 42.1 | – | > 100 | 28.2 | 31.2 | 27.7 | 43.1 | – | 12.7 |
| FC(F)(Sc1ncccn1)c1nc2ccccc2o1 | > 100 | > 100 | > 100 | > 100 | > 100 | – | > 100 | > 100 | > 100 | – |
| O=C(Nc1nnc(-c2ccccc2)o1)C(SC(=S)N1CCCC1)c1ccccc1 (stereo unspecified) | > 100 | > 100 | > 100 | > 100 | – | > 100 | > 100 | – | > 100 | 48.1 |
| N#CC(c1cc(Cl)ncn1)c1nc2cc(C(F)(F)F)ccc2s1 (stereo unspecified) | > 100 | 13.5 | 92 | 29.2 | – | 22.6 | – | 5.92 | > 100 | – |
| Cc1cc(C)n(C(C)(C(=O)Cc2ccccc2)n2nc(C)cc2C)n1 | > 100 | > 100 | > 100 | > 100 | > 100 | > 100 | > 100 | > 100 | – | > 100 |
| CCN(CCCl)c1cc(CN(C)C)cc(NC(=O)c2ccc(C(=O)Nc3cccc(N(CCCl)NN)c3)cc2)c1 | 31.8 | 0.942 | – | 12.5 | 0.324 | – | 0.0661 | 0.707 | – | 13.1 |
| CC1(O)CC23CC(O)C4(O)C(CC(O)C4(C)C)C(C)(O)C2CCC1C3O (stereo unspecified) | – | > 100 | > 100 | > 100 | > 100 | > 100 | > 100 | > 100 | > 100 | > 100 |
| COC1=C(OC)C(=O)C(Cc2c(-c3ccccc3)nc3sc(Cl)cn23)=C(C)C1=O | 34.9 | 32.9 | – | 34.3 | 24.6 | 35.3 | 33.3 | – | 29.9 | 24.7 |
| Nc1c(-c2ccccc2)c2ccc([N+](=O)[O-])cc2c(=O)n1-c1cccc(C(=O)O)c1 | > 100 | > 100 | > 100 | > 100 | > 100 | > 100 | > 100 | – | > 100 | > 100 |
